The values that follow come from patent publication US20120115827A1, “3-AMINOBENZAMIDE COMPOUNDS AND VANILLOID RECEPTOR SUBTYPE 1 (VR1) INHIBITORS” (Japan Tobacco Inc., priority 2004, published 2012).

T1 sequence (Q8NER1 whole entry): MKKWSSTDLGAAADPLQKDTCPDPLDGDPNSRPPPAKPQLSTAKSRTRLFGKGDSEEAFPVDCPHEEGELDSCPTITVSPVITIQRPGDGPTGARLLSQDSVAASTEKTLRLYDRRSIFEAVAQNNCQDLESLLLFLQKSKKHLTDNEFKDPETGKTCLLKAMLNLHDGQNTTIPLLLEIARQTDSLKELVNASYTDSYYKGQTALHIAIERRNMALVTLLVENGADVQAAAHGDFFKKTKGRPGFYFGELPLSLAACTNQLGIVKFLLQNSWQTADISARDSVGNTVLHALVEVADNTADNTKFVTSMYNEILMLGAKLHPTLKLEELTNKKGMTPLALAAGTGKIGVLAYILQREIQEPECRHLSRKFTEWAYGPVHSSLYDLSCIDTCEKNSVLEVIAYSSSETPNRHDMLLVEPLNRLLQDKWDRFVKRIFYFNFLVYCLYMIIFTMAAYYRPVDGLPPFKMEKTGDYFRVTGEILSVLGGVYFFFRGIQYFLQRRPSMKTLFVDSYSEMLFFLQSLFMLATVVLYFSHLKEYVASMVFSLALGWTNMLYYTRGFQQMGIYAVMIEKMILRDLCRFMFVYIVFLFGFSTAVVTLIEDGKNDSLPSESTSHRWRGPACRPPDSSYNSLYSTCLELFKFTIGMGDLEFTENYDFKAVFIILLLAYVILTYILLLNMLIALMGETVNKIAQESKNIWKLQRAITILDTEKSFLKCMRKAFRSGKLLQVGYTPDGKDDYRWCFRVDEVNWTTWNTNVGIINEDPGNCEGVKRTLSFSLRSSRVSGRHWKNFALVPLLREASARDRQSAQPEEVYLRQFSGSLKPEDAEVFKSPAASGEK

This assay has as its target T1, human VR1 (Homo sapiens, UniProt Q8NER1).
T1 construct: expressed in transfected cells
Put plainly: Inhibition of Ca2+ entry in cells caused by proton (VR1 agonist). As to conditions: Rat glioma (C6BU1) cells stably expressing human VR1; proton stimulation to pH 5.5; Fura 2-AM fluorescence; read-out: In vitro IC50. It is filed as cell-based. The procedure: The assay for evaluation of VR1 inhibition by the inventive compounds will be described below. The assay was intended to evaluate in vitro inhibition of Ca^2+ entry in cells caused by proton, one of the VR1 agonists.
Rat glioma (C6BU1) cells stably expressing human VR1 were suspended in 20 mM MES buffer (at pH 6.8, contg. 20 mM 2-morpholinoethanesulfonate (referred to as MES hereinafter), 115 mM NaCl, 5 mM KCl, 1 mM MgCl2 and 14 mM D-glucose) to make a cell density of 1×10^6 cells/mL. A fluorescent dye, Fura 2-AM solution (Dojindo Corporate, Cat. No. 343-05401) was added to the suspension to make a 5 μM concentration thereof. Further, Pluronic F-127 (Wako Pure Chemical Industries, Ltd., Cat. No. P6866) was added to make a 0.1% content thereof. Then, the suspension was incubated at 37° C. for 30 min. The cells were harvested and washed three times with 20 mM MES buffer. The cells were suspended again to make a cell density of 5×10^5 cells/mL. A 500-μL portion of the suspension was taken with a cuvette (MC MEDICAL, INC., Cat. No. SSR3121), to which […] MES buffer containing 250 mM CaCl2 was added to incorporate Ca^2+ into the cells. At the same time, 5 μL of a test compound solution (in a range of 100 μM to 10 nM in DMSO) was also added to provide a final concentration thereof in a range of 1 μM to 0.1 nM. Alternatively, 5 μl of DMSO was added as control to provide a final concentration of 1% DMSO. The suspension was set in an intracellular ionometer (CAF-110; JASCO) 10 min after those additions. The cells were stimulated with protons by addition of 60 μL of 20 mM MES buffer at pH 1.1 to the suspension to set its pH at 5.5. The activity of the test compound was determined as a difference between the minimum of fluorescence intensity before agonist stimulation and its maximum after the stimulation. The value of IC50 was derived from percentage of inhibition by the test compound compared with the control.
The term IC50 denotes the concentration that gives 50% inhibition. For `NC(=O)CN(c1cc(C(=O)Nc2ccc(C(F)(F)F)cc2)ccc1Cl)c1ncc(C(F)(F)F)cc1Cl` [Example 68, 4-chloro-3-[N-(3-chloro-5-trifluoromethylpyridin-2-yl)-N-(carbamoylmethyl)amino]-N-(4-trifluoromethylphenyl)-benzamide], the IC50 was at most 100 nM.
The figure for `NC(=O)CN(c1ccc(Cl)cn1)c1cc(C(=O)Nc2ccc(OC(F)(F)F)cc2)ccc1Cl` [Example 69] is at most 100 nM; for `NC(=O)CN(c1ccc(Cl)cn1)c1cc(C(=O)Nc2ccc(C(F)(F)F)cc2)ccc1Cl` [Example 70] it is at most 100 nM.
Consider `COCc1cnc(N(CC(N)=O)c2cc(C(=O)Nc3ccc(OC(F)(F)F)cc3)ccc2Cl)c(Cl)c1` [Example 71, 4-chloro-3-[N-(3-chloro-5-methoxymethylpyridin-2-yl)-N-(carbamoylmethyl)amino]-N-(trifluoromethoxyphenyl)-benzamide], for which the IC50 was at most 100 nM.
Regarding `COCc1cnc(N(CC(N)=O)c2cc(C(=O)Nc3ccc(C(F)(F)F)cc3)ccc2Cl)c(Cl)c1` [Example 72, 4-chloro-3-[N-(3-chloro-5-methoxymethylpyridin-2-yl)-N-(carbamoylmethyl)amino]-N-(trifluoromethylphenyl)-benzamide], the 50% inhibitory concentration (IC50) is at most 100 nM.
Consider `CCOC(=O)c1cnc(N(C)c2cc(C(=O)Nc3ccc(C(C)(C)C)cc3)ccc2Cl)c(Cl)c1` [Example 73, Ethyl 6-{[5-(4-tert-butylphenylcarbamoyl)-2-chlorophenyl]-methyl-amino}-5-chloronicotinate], for which the IC50 was in the range of 100 to 1000 nM.
On to `CN(c1cc(C(=O)Nc2ccc(C(C)(C)C)cc2)ccc1Cl)c1ncc(C(N)=O)cc1Cl` [Example 75, 6-{[5-(4-tert-butylphenylcarbamoyl)-2-chlorophenyl]-methyl-amino}-5-chloronicotinamide], for which the half-maximal inhibitory concentration (IC50) is at most 100 nM.
As for `CNC(=O)c1cnc(N(C)c2cc(C(=O)Nc3ccc(C(C)(C)C)cc3)ccc2Cl)c(Cl)c1` [Example 76, 6-{[5-(4-tert-butylphenylcarbamoyl)-2-chlorophenyl]-methyl-amino}-5-chloro-N-methylnicotinamide], the figure is 100 to 1000 nM.
On to `CN(C)C(=O)c1cnc(N(C)c2cc(C(=O)Nc3ccc(C(C)(C)C)cc3)ccc2Cl)c(Cl)c1` [Example 77, 6-{[5-(4-tert-butylphenylcarbamoyl)-2-chlorophenyl]-methyl-amino}-5-chloro-N,N-dimethylnicotinamide], for which the concentration for half-maximal inhibition (IC50) lay within 100 to 1000 nM.
Regarding `CN(c1cc(C(=O)Nc2ccc(C(C)(C)C)cc2)ccc1Cl)c1ncc(CO)cc1Cl` [Example 78, N-(4-tert-butylphenyl)-4-chloro-3-[N-(3-chloro-5-hydroxymethylpyridin-2-yl)-N-methyl-amino]benzamide], the half-inhibitory concentration (IC50) is at most 100 nM.
The figure for `CN(c1cc(C(=O)Nc2ccc(C(F)(F)F)cc2)ccc1Cl)c1ncc(CO)cc1Cl` [Example 79, 4-chloro-3-[N-(3-chloro-5-hydroxymethylpyridin-2-yl)-N-methyl-amino]-N-(4-trifluoromethylphenyl)-benzamide] is at most 100 nM.
`CN(c1cc(C(=O)Nc2ccc(Cl)cc2)ccc1Cl)c1ncc(CO)cc1Cl` [Example 80, 4-chloro-3-[N-(3-chloro-5-hydroxymethylpyridin-2-yl)-N-methyl-amino]-N-(4-chlorophenyl)-benzamide]: the IC50 is at most 100 nM.
On to `CN(c1cc(C(=O)Nc2ccc(OC(F)(F)F)cc2)ccc1Cl)c1ncc(CO)cc1Cl` [Example 81, 4-chloro-3-[N-(3-chloro-5-hydroxymethylpyridin-2-yl)-N-methyl-amino]-N-(4-trifluoromethoxyphenyl)-benzamide], for which the IC50 was at most 100 nM.
`CN(c1cc(C(=O)Nc2ccc(C(F)(F)F)cc2)ccc1F)c1ncc(CO)cc1Cl` [Example 82, 3-[N-(3-chloro-5-hydroxymethylpyridin-2-yl)-N-methyl-amino]-4-fluoro-N-(4-trifluoromethylphenyl)-benzamide]: the half-maximal inhibitory concentration (IC50) was at most 100 nM.
Turning to `CN(c1cc(C(=O)Nc2ccc(OC(F)(F)F)cc2)ccc1F)c1ncc(CO)cc1Cl` [Example 83, 3-[N-(3-chloro-5-hydroxymethylpyridin-2-yl)-N-methyl-amino]-4-fluoro-N-(4-trifluoromethoxyphenyl)-benzamide], the IC50 is at most 100 nM.
